Data from article PMC5450539, “Anti-Inflammatory Activity and Structure-Activity Relationships of Brominated Indoles from a Marine Mollusc” (Marine Drugs, 2017).
Where “and” joins values, the source holds several entries; their conditions need not be identical. Equal entries are not always repeated. Where two headings read alike, the source gives them in different places.

Experiments:
[1] = test system: 3T3 ccl-92 mouse fibroblast; assay: Crystal violet cytotoxicity assay, 3T3 ccl-92; type: cell-based; conditions: 24 h incubation; max test concentration 50 µg/mL; > = <50% reduction in viability at max
Method: All extract/compounds were dissolved in DMSO and tested at 5 different concentrations of 50, 10, 2, 0.4, and 0.08 μg/mL for all anti-inflammatory assays unless otherwise noted. The final concentration of DMSO was 0.35% v/v for extracts and compounds. All samples were tested in triplicate at each concentration and each assay was independently repeated at least 3 times. The concentrations used for the cytotoxicity assays were 50, 25, 12.5, 6.25. and 3.125 μg/mL.
To check for cytotoxicity of the extracts and compounds against RAW264.7 mouse macrophage and 3T3 ccl-92 mouse fibroblast cell lines, the crystal violet cytotoxicity test was used according to the published protocol. In brief, RAW264.7 cells were seeded with a density of 2 × 10^4 cells/well in a 96-well plate and then incubated for 18–24 h. The following day the compounds/extracts were added and then incubated for 24 h before the media was aspirated and the cells washed twice in a gentle stream of water. After removing the water, 50 µL of 0.5% crystal violet staining solution were added and the cells were incubated for 20 min at room temperature. The plate was then washed 4 times with water and air dried for 2 h. Finally, 200 μL of methanol was added to each well and incubated for 20 min at room temperature on a rocker. This was followed by measuring the optical density at 570 nm with a plate reader Anthos Zenyth 200rt (Anthos Labtec Instruments, Heerhugowaard, The Netherlands). Chlorambucil was used as a positive control.

[2] = test system: nitric oxide (NO) production; assay: NO inhibition assay (Greiss) in LPS-stimulated RAW264.7 macrophages; type: cell-based, mouse; conditions: for IC50: Mus musculus
Method: RAW264.7 macrophages were incubated 1 h with extracts/compounds prior to the addition of LPS. […] Then, 20 h after the addition of LPS, the supernatant was collected. […] The plates were incubated for 15–20 min in the dark, then read at 550 nm wavelength on an Anthos Zenyth 200rt (Anthos Labtec Instruments). Sodium nitrite was used to prepare a standard curve to quantify the nitrite from the absorbance readings in this assay. All data were processed in Microsoft Office Excel 2013 (MS) first to obtain descriptive statistics. One-way Analysis of Variance (ANOVA) followed by Dunnett’s multiple comparisons test was performed using GraphPad Prism version 6.00 for Windows (GraphPad Software, La Jolla, CA, USA, www.graphpad.com), with p < 0.05 considered significant.

[3] = test system: TNFα production; assay: TNF-alpha inhibition assay (ELISA) in LPS-stimulated RAW264.7 macrophages; type: cell-based, mouse; conditions: for IC50: Mus musculus
Method: The amount of TNFα was quantified in cell culture media using murine TNFα ELISA kits (BD bioscience). In brief, the RAW264.7 mouse macrophages (6 × 10^5 cells/mL) were stimulated with LPS (100 ng/mL) 1 h after treatment with several concentrations of extracts (0.08–50 μg/mL). After 18 h, the supernatant was collected and TNFα production was measured by reading the absorbance at 450 nm wavelength on an Anthos Zenyth 200rt microplate reader (Anthos Labtech Instruments). Dexamethasone at a concentration of 2.5 μM was used as a positive control, with a negative control of 0.35% DMSO.
All data were processed in Microsoft Office Excel 2013 (MS) first to obtain descriptive statistics. One-way Analysis of Variance (ANOVA) followed by Dunnett’s multiple comparisons test was performed using GraphPad Prism version 6.00 for Windows (GraphPad Software, La Jolla, CA, USA, www.graphpad.com), with p < 0.05 considered significant. The inhibitory concentration responsible for a 50% reduction in cell viability or production of inflammatory markers (IC50) was calculated using the regression analysis, Probit in SPSS v21.

[4] = test system: NFκB translocation; assay: Assessment of NFκB translocation in LPS-stimulated RAW264.7; type: cell-based; conditions: Mus musculus, RAW264.7, 40 µg/mL, LPS-stimulated RAW264.7, relative to DMSO + LPS
Method: This assay was performed according to the published protocol in Olivera et al.. RAW264.7 mouse macrophages were seeded at 400,000 cells/well in 800 μL in 4-well chambered slides and incubated overnight. The cells were then incubated with the test samples (40 μg/mL HBG extract, 6-bromoisatin, or 6-bromoindole) for 1 h prior to stimulation with LPS (700 ng/mL) for 30 min. After stimulation, the cells were washed with PBS and fixed with 3.7% paraformaldehyde for 15 min. […] The cells were washed with PBS and incubated with rabbit anti-p65 NFκB antibody (1:500) and goat anti-mouse IκB (1:500) overnight at 4 °C. The following day, the cells were washed again three times with PBS and incubated for 1 h with goat-anti-rabbit IgG conjugated with Alexa Fluor 594 (1:1000) and donkey anti-mouse IgG conjugated with Alexa fluor 488 (1:1000) at room temperature. Finally, the cells were washed with PBS then mounted with Prolong mounting media containing DAPI before visualising using the Olympus Flouview FVi10 confocal microscope (Olympus, Tokyo, Japan). Using ImageJ (v1.50i, National Institutes of Health, Bethesda, MD, USA), an outline was drawn around each nucleus by adjusting the colour threshold of DAPI. Mean fluorescence inside the nucleus was measured, along with several adjacent background readings. The total corrected cellular fluorescence (TCCF) was calculated by applying the equation TCCF = integrated density − (area of selected cell × mean fluorescence of background readings). This TCCF was then used to calculate the %inhibition of the NFκB translocation against the positive control where the cells were treated with LPS in the presence of the Vehicle (0.35% DMSO v/v) in Microsoft Office Excel 2013 (Redmond, WA, USA).

[5] = test system: NO production; parameters: method as in Matheus et al. [37]; conditions: LPS and interferon-γ induced, RAW264.7; ref Matheus et al. [37]; cited from earlier work
[6] = test system: TNFα; parameters: method as in Matheus et al. [37]; conditions: minimum effective dose not established; ref Matheus et al. [37]; cited from earlier work

- IC50 ([2]; RAW264.7, LPS-stimulated RAW264.7, max test concentration 50 µg/mL, read-out: NO IC50): ~340 µM
- IC50 ([2]; RAW264.7, predicted, above maximum test concentration 50 μg/mL, read-out: predicted NO IC50): 63.3 µg/mL and 430 µM
- IC50 ([3]; RAW264.7, LPS-stimulated RAW264.7, max test concentration 50 µg/mL, read-out: TNFα IC50): > 340 µM
- IC50 ([3]; RAW264.7, LPS-stimulated RAW264.7, read-out: TNFα IC50): > 50 µg/mL
- IC50 ([3]; RAW264.7, predicted, above the maximum test concentration, read-out: predicted TNFα IC50): 717 µM
SMILES: O=C1Nc2ccccc2C1=O [isatin]
- Cytotoxicity 3T3 ccl-92 (test concentration which causes toxicity) [1]: NA (not active at maximum test concentration 50 µg/mL)
- reduction of NO production ([2]; 50 µg/mL (maximum test concentration), relative to DMSO control): 34%
- lowest concentration with significant inhibition of TNFα [3]: 0.5 µM
- inhibition at 40 µg/mL [4]: 45.7%
- concentrations significantly inhibiting NO production [5]: 10 to 100 µM
- concentration at which TNFα was inhibited [6]: 100 µM
